The structures appear in SMILES notation. Like-named read-outs stand apart in the source and are kept apart here.

These results are taken from patent US20250179047A1, “5-[7-(3,4-DIHYDRO-1H-ISOQUINOLINE-2-CARBONYL)-1,2,3,4 TETRAHYDROISOQUINOLIN-6-YL]-1H-PYRROLE-3-CARBOXAMIDE DERIVATIVES, PHARMACEUTICAL COMPOSITIONS CONTAINING THEM AND THEIR USES AS PRO-APOPTOTIC AGENTS” (LES LABORATOIRES SERVIER, priority 2022, published 2025).

One test deals with BCL2 WT (Homo sapiens (Human), UniProt P10415). Kind of test: TR-FRET competitive binding assay, BCL2 WT. An outline of the steps:
(§1)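 Competitive TR-FRET displacement of fluorescein-PUMA peptide (2 or 20 nM) from 0.5 nM terbium-labelled N-terminal Halo-fusion BCL2 (1-207, wild type or mutant) or BCLXL (2-196), expressed in E. coli. Buffer 50 mM Hepes pH 7.5, 150 mM NaCl, 5% DMSO; 2 h at 23°C. 520/495 nm ratio fitted over 11 points for IC50, converted to Ki.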

The target of test [1] is BCL2 G101V (Homo sapiens, UniProt P10415, G101V). Kind of test: TR-FRET competitive binding assay, BCL2 G101V. The note with it: BCL2 G101V; Ki determined from IC50; read-out: TR_FRET EKI_Bcl2 G101V. The essentials: as §1
Test [2] has as its system BCL2 G101V. Description: TR-FRET competitive binding assay, BCL2 G101V. The note with it: for TR_FRET EKI G101V/WT selectivty ratio: ratio Ki BCL2 G101V / Ki BCL2 WT. On the set-up: species or system human. The essentials:
as §1

A further test has as its target BCL2 D103Y (Homo sapiens, UniProt P10415, D103Y). Kind of test: TR-FRET competitive binding assay, BCL2 D103Y. The note with it: Ki determined from IC50, read-out: TR_FRET EKI_Bcl2 D103Y. The essentials: as §1
The next test has as its target BCL2 F104I (Homo sapiens, UniProt P10415, F104I). Description: TR-FRET competitive binding assay, BCL2 F104I. The note with it: Ki determined from IC50, read-out: TR_FRET EKI_Bcl2 F104I. The procedure:
(§2) The relative binding potency of each compound was determined in a competitive binding assay using time resolved-fluorescence resonance energy transfer (TR-FRET). The method utilised a fluorescein labelled peptide derived from PUMA (5Flu-Ahx-[…]-NH2 wherein Ahx means 6-hexanoic acid monomer and the amino acid sequence is referred to as SEQ ID:01) which binds to a terbium labelled BCL2 or BCLXL protein. The degree of binding or corresponding compound inhibition can be quantified by the TR-FRET signal between the terbium donor and fluorescein acceptor.
(§3) The human BCL2_wild-type (also named BCL2_wt), BCL2_G101V mutant and BCLXL_wild-type were E. coli expressed as a N-terminal Halo-fusion proteins and singly labelled with Terbium on the Halo protein to afford the following amino acid sequences:
(§4) wherein the BCL2(1-207) sequence corresponds to UniProtKB® primary accession number P10415 and the BCLXL(2-196) sequence corresponds to UniProtKB® primary accession number Q07817-1.
(§5) The assay was performed in a 40 μL volume in white 384-standard well plates (Corning #3574). An 11-point serial dilution of each compound was prepared in DMSO and transferred directly to plate followed by addition of fluorescein labelled peptide and lastly protein. Final assay conditions were 0.5 nM BCL2_wt, BCL2_G101V, BCL2_D103Y, BCL2_F104I, BCL2_D111A or BCLXL_wt, 2 or 20 nM fluorescein labelled peptide, 50 mM Hepes pH 7.5, 150 mM NaCl, 0.5 mM TCEP (Tris(2-carboxyethyl)phosphine), 0.05% Tween 20, 5% DMSO. The mixture was incubated for 2 hours at 23° C.
(§6) TR-FRET measurements were performed on a Biotek Synergy Neo plate reader. TR-FRET was measured by excitation of the Terbium-donor at 340 nm and subsequent (delay time 100 μs) measurement of terbium and fluorescein emission at 495 nm and 520 nm, respectively, over a collection time of 300 μs. The TR-FRET signal was calculated as the emission-ratio at 520 nm over 495 nm.
(§7) The TR-FRET ratio readout for test compounds was normalized against 0% inhibition controls wells and 100% inhibition control wells. Test compound potency (IC50) was estimated by nonlinear regression using the sigmoidal dose-response (variable slope) using Xlfit 4 (IDBS, Guildford, Surrey, UK, model 205). Were the IC50 could not be determined the % inhibition at the highest tested concentration is given.
(§8) y=(A+((B−A)/(1+((C/x)^D))))
(§9) where y is the normalized TR-TRET ratio measurement for a given concentration of test compound, x is the concentration of test compound, A is the estimated efficacy (% inhibition) at infinite compound dilution, and B is the maximal efficacy (% inhibition). C is the IC50 value and D is the Hill slope coefficient.
(§10) The K1 values were determined from the IC50 values according to Cer et al, Nucleic Acids Res, 2009, July 1; 37 (WebServer issue): W441-W445.

A further test addresses BCL2 D111A (Homo sapiens, UniProt P10415, D111A). Description: TR-FRET competitive binding assay, BCL2 D111A. The note with it: Ki determined from IC50, read-out: TR_FRET EKI_Bcl2 D111A. The procedure:
as §2, §3, §4, §5, §6, §7, §8, §9, §10

The target of a further test is BCLXL WT (Homo sapiens (Human), UniProt Q07817). Kind of test: TR-FRET competitive binding assay, BCLXL WT. The note with it: for Ki: BCLXL WT, Ki determined from IC50, read-out: TR_FRET EKI BclxL; for TR_FRET EKI BCLxL/WT selectivty ratio: ratio Ki BCLxL / Ki BCL2 WT. The essentials: as §1
BCLXL WT, sequence (Q07817 other isoform, or with tags, fused parts or gaps): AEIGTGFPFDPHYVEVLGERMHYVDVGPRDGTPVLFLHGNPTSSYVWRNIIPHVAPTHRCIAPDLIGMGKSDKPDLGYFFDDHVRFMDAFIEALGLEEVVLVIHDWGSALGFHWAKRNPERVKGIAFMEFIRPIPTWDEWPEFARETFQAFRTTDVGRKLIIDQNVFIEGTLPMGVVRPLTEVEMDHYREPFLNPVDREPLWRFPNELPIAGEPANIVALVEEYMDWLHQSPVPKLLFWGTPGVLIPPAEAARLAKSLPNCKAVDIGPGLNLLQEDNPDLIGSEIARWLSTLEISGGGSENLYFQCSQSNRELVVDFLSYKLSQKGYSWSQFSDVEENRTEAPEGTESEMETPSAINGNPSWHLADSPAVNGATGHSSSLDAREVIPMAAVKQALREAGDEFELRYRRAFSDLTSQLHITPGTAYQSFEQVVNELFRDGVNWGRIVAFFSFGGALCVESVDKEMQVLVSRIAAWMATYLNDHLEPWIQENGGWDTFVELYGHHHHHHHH
Another test deals with KMS-12-PE Bcl-2 WT. Kind of test: In vitro cytotoxicity CellTiter-Glo 48 h, KMS-12-PE Bcl-2 WT. In kind it is cell-based. The note with it: Homo sapiens, KMS-12-PE, C50 = concentration needed to reach 50% of the cellular viability. An outline of the steps:
(§11)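 CTG luminescence read-out; C50 = concentration reaching 50% cellular viability. Cells: KMS-12-PE expressing Bcl-2 WT or G101V (lentiviral, TagRFP-sorted). 11-pt curve, 48 h, 37 °C/5% CO2.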

Another test concerns KMS-12-PE Bcl-2 G101V. Description: In vitro cytotoxicity CellTiter-Glo 48 h, KMS-12-PE Bcl-2 G101V. In kind it is cell-based. The note with it: for Ratio (G101V/WT): C50 KMS-12-PE Bcl-2 G101V over C50 KMS-12-PE Bcl-2 WT; for IC50: Homo sapiens, KMS-12-PE, 48 h, CellTiter-Glo, C50 = concentration needed to reach 50% of the cellular viability. The essentials: as §11
The mark [3] stands for this setting: Ki determined from IC50, read-out: TR_FRET EKI_Bcl2 WT.

Consider `Cc1c(N(C(=O)c2cc(-c3cc4c(cc3C(=O)N3Cc5ccccc5C[C@H]3C)CN(C(=O)Cc3ccc(OCCN5C[C@H](C)O[C@@H](C)C5)cc3)CC4)n(C)c2C)c2ccc(O)cc2)cc(C#N)n1C` (single isomer, unassigned) [Example 42, N-(5-cyano-1,2-dimethyl-1H-pyrrol-3-yl)-5-{2-[2-(4-{2-[(2R or S,6R or S)-2,6-dimethylmorpholin-4-yl]ethoxy}phenyl)acetyl]-7-[(3R)-3-methyl-1,2,3,4-tetrahydroisoquinoline-2-carbonyl]-1,2,3,4-tetrahydroisoquinolin-6-yl}-N-(4-hydroxyphenyl)-1,2-dimethyl-1H-pyrrole-3-carboxamide], for which the Ki was 0.18 nM at BCL2 WT (setting [3]); 0.3 nM at BCL2 G101V [1]; 0.62 nM on BCL2 D103Y; 0.76 nM at BCL2 F104I; 0.36 nM at BCL2 D111A; 3 nM on BCLXL WT. In addition, the “TR_FRET EKI G101V/WT selectivty ratio” value in the test on BCL2 G101V [2] stood at 1.8. For the same molecule, on BCLXL WT, the “TR_FRET EKI BCLxL/WT selectivty ratio” value stood at 16.7. For the same molecule, the IC50 in the test on KMS-12-PE Bcl-2 WT was determined as 0.0046 µM; in the test with KMS-12-PE Bcl-2 G101V, 0.0175 µM. Also, in the test on KMS-12-PE Bcl-2 G101V, the “Ratio (G101V/WT)” value amounted to 3.77.
For the molecule `Cc1c(N(C(=O)c2cc(-c3cc4c(cc3C(=O)N3Cc5ccccc5C[C@H]3C)CN(C(=O)Cc3cccc(N5CCN(C)CC5)c3)CC4)n(C)c2C)c2ccccc2)cc(C#N)n1C` [Example 3, N-(5-cyano-1,2-dimethylpyrrol-3-yl)-1,2-dimethyl-5-(7-{[(3R)-3-methyl-3,4-dihydro-1H-isoquinolin-2-yl]carbonyl}-2-{2-[3-(4-methylpiperazin-1-yl)phenyl]acetyl}-3,4-dihydro-1H-isoquinolin-6-yl)-N-phenylpyrrole-3-carboxamide], the Ki at BCL2 WT (setting [3]) came out at 0.03 nM; at BCL2 G101V [1], 0.4 nM; at BCL2 D103Y, 0.12 nM; on BCL2 F104I it was 1.65 nM; on BCLXL WT it was 1.3 nM. Also, in the test on BCL2 G101V [2], the “TR_FRET EKI G101V/WT selectivty ratio” value was 11.7. Further, at BCLXL WT, the “TR_FRET EKI BCLxL/WT selectivty ratio” value stood at 43.3. Also, the figures for the IC50 in the test on KMS-12-PE Bcl-2 WT and with KMS-12-PE Bcl-2 G101V were 0.0054 µM and 0.051 µM, respectively. For the same molecule, the “Ratio (G101V/WT)” value in the test with KMS-12-PE Bcl-2 G101V amounted to 9.44.
As for `Cc1c(N(C(=O)c2cc(-c3cc4c(cc3C(=O)N3Cc5ccccc5C[C@H]3C)CN(C(=O)Cc3cccc(N5CCOCC5)c3)CC4)n(C)c2C)c2ccc(O)cc2)cc(C#N)n1C` [Example 6, N-(5-cyano-1,2-dimethylpyrrol-3-yl)-N-(4-hydroxyphenyl)-1,2-dimethyl-5-(7-{[(3R)-3-methyl-3,4-dihydro-1H-isoquinolin-2-yl]carbonyl}-2-{2-[3-(morpholin-4-yl)phenyl]acetyl}-3,4-dihydro-1H-isoquinolin-6-yl)pyrrole-3-carboxamide], the Ki amounted to 0.13 nM at BCL2 WT (setting [3]); 0.7 nM at BCL2 G101V [1]; 0.67 nM on BCL2 D103Y; 2.03 nM on BCL2 F104I; 1.1 nM at BCLXL WT. For the same molecule, in the test on BCL2 G101V [2], the “TR_FRET EKI G101V/WT selectivty ratio” value came to 5.1. For the same molecule, the “TR_FRET EKI BCLxL/WT selectivty ratio” value at BCLXL WT worked out at 8.5. The 50% inhibitory concentration (IC50) in the test with KMS-12-PE Bcl-2 WT is 0.0106 µM; in the test on KMS-12-PE Bcl-2 G101V it was 0.0566 µM. In addition, the “Ratio (G101V/WT)” value in the test with KMS-12-PE Bcl-2 G101V is recorded as 5.34.
Take `Cc1c(N(C(=O)c2cc(-c3cc4c(cc3C(=O)N3Cc5ccccc5C[C@H]3C)CN(C(=O)Cc3ccc(OCCN5CCOCC5)cc3)CC4)n(C)c2C)c2ccccc2)cc(C#N)n1C` [Example 236]: the Ki amounted to 0.078 nM at BCL2 WT (Ki determined from IC50, read-out: TR_FRET EKI_Bcl2); 0.73 nM at BCL2 G101V [1]; 0.786 nM on BCL2 D103Y; 1.12 nM on BCL2 F104I; 0.132 nM at BCL2 D111A; 4.15 nM on BCLXL WT. Besides, the “TR_FRET EKI G101V/WT selectivty” value in the test on BCL2 G101V [2] (ratio of Ki BCL2 G101V to BCL2 WT) is 9.3. For the same molecule, the “TR_FRET EKI BCLxL/WT selectivty” value on BCLXL WT (ratio of Ki BCLxL to BCL2 WT) worked out at 53.1. The same molecule registered an IC50 in the test with KMS-12-PE Bcl-2 WT of 0.00418 µM.
